In patent US20060241301A1, “Urea derivatives and their use as tyrosinkinase inhibitors” (priority 2003, published 2006):

Tests used:
TIE-2 = TIE-2 (Homo sapiens, UniProt Q02763); assay: TIE-2 kinase flashplate assay (phosphorylation of poly(Glu, Tyr), 33P-ATP); type: biochemical; details: read-out: Inhibition by TIE-2 IC50
Procedure: The TIE-2 tests can be carried out, for example, analogously to the methods indicated in WO 02/44156.
The assay determines the inhibiting activity of the substances to be tested in the phosphorylation of the substrate poly(Glu, Tyr) by Tie-2 kinase in the presence of radioactive ^33P-ATP. The phosphorylated substrate binds to the surface of a “flashplate” microtitre plate during the incubation time. After removal of the reaction mixture, the microtitre plate is washed a number of times and the radioactivity on its surface is subsequently measured. An inhibiting effect of the substances to be measured results in lower radioactivity compared with an undisturbed enzymatic reaction.

RAF = RAF kinase inhibition; type: biochemical

Sequence of TIE-2 (Q02763 23-1124, species assumed): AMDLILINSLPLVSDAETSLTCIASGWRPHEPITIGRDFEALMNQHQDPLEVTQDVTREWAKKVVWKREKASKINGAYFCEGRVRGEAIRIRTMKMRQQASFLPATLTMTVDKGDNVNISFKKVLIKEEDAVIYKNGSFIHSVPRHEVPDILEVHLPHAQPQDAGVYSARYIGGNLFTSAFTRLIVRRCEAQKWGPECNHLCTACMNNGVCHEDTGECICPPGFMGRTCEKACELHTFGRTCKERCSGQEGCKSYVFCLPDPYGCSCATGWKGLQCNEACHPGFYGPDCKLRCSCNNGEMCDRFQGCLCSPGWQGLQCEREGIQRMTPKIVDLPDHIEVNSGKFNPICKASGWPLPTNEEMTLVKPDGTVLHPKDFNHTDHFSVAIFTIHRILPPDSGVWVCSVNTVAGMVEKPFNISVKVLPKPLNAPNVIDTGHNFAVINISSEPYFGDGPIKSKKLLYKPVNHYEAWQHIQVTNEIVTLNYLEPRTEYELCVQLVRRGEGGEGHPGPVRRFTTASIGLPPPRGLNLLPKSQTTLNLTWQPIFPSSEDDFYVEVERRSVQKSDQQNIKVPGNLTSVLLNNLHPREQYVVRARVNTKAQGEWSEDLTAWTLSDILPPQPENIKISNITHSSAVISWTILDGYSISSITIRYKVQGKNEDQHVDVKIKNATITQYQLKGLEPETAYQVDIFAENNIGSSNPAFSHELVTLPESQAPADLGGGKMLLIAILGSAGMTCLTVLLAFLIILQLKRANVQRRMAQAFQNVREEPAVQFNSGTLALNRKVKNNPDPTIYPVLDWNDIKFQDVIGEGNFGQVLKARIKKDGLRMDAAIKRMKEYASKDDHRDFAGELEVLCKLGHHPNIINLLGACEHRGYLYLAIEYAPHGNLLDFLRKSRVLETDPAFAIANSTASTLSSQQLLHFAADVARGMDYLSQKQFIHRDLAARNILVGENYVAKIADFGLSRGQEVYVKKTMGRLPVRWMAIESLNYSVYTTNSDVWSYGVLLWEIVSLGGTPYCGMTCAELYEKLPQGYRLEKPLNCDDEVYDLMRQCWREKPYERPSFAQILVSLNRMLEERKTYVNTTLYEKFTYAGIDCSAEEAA

| Compound | IC50 (TIE-2) [nM] | IC50 (RAF) [nM] |
| --- | --- | --- |
| O=C(Nc1ccc(Oc2ccc3nsnc3c2)cc1)Nc1cc(C(F)(F)F)ccc1F [A1, 1-[4-(Benzo-1,2,5-thiadiazol-5-yloxy)phenyl]-3-(2-fluoro-5-trifluoromethylphenyl)urea] | 57 | 220 |
| CNC(=O)c1cc(Oc2ccc(NC(=O)Nc3cc(C(F)(F)F)ccc3F)cc2)ccn1 [No. 2, N-methyl-4-{4-[3-(fluorotrifluoromethylphenyl)ureido]phenoxy}pyridine-2-carboxamide] | 32 | – |
| CNC(=O)c1cc(Oc2ccc(NC(=O)Nc3ccc(Cl)c(C(F)(F)F)c3)cc2)ccn1 | – | 264 |
